In patent publication US12390483B2, “Compounds and methods for treating neurological and cardiovascular conditions” (Astrocyte Pharmaceuticals, Inc., priority 2016, dated 2025):
“Also recorded” adds a separate entry of the source.

Tests used:
[1] = Stability of MRS2365 incubated in phosphate-buffered saline; assay type: physicochemical
GFAP expression = assay: Traumatic brain injury (TBI) in mice, Western blot analysis for GFAP; assay type: in vivo; conditions: for GFAP expression in brain (Western blot, GFAP/actin): 7 days post-injury, versus untreated TBI
Procedure: Animals and traumatic brain injury (TBI): TBI was performed with a controlled closed skull injury model as described in […] al. 2012 (J. Neurotrauma 30, 55-66). Following the method described therein, a pneumatic impact device was used to generate a moderate TBI leaving the skull and dura matter intact. To achieve this, C57BL/6 mice were anesthetized with isoflurane (3% induction, 1% maintenance) in 100% oxygen. A body temperature of 37° C. was maintained using a temperature-controlled heated surgical table. A small midline incision was made on the scalp using aseptic surgical techniques. A 5 mm stainless steel disc was positioned on the skull and fixed using superglue on the right parietal bone between bregma and lamda over the somatosensory cortex. The mouse was then positioned on a stage directly under the pneumatic impact tip. […] Scalp incisions were closed using 4-0 nylon braided suture and antibiotic ointment applied to the incision. Mice were placed in a Thermo-Intensive Care Unit (Braintree Scientific model FV-1; 37° C.; 27% 02) and monitored until fully awake and moving freely. […] Western Blot Analysis for GFAP: At selected survival times, mice were anesthetized under isoflurane and sacrificed. The brain was removed and placed on ice for dissection into impacted and non-impacted brain hemispheres. […] The homogenate was transferred to a 2 mL tube and centrifuged at 1000 g for 10 minutes at 4° C. and the supernatant was collected and analyzed. Protein concentration was determined by the BCA assay using a 1:50 dilution. 100 μg of protein was removed as an aliquot for each sample and Laemmli buffer containing β-mercaptoethanol added and the sample placed in a heat block for 3 minutes at 95° C. Samples were loaded on a 12% gel and ran at 80 V for 20 minutes followed by 40 minutes at 130 V. Samples were transferred to nitrocellulose membrane at 100 V for 1 hour. The membrane was blocked with 5% milk in TBS-T for 30 minutes. GFAP (1:1000-Imgenex IMG-5083-A) was added and placed at 4° C. overnight. The membrane was washed with TBS-T three times for 10 minutes. Secondary antibody for GFAP (Donkey anti-rabbit HRP conjugated (ImmunoJackson Laboratories; 711-035-152; 1:20000) was applied at room temperature for 1 hour. The membranes were washed with TBS-T for 15 minutes (3 times) and developed using the Western Lightning Plus-ECL kit (PerkinElmer, Inc.) following manufacturer's directions.

[2] = In vitro stability and metabolite scouting of MRS2365 in human plasma; assay type: in vitro ADME
Procedure: Whole blood was obtained from male CD-1 mice and human volunteers at Seventh Wave Laboratories (Maryland Heights, MO). Plasma and blood samples were prepared using either EDTA (1 mM) or lithium heparin as anticoagulants.
Plasma Stability Determination: MRS2365, enalapril and procaine were solubilized in phosphate-buffered saline, pH 7.4. […] Stability incubations were initiated with the addition of MRS2365 (1 μM final concentration). Initial assessments of stability in EDTA-generated plasma utilized incubation timepoints of 0, 10, 30, 60, 120 and 240 minutes (FIGS. 3 and 4). […]
Plasma and blood samples were also qualitatively analyzed for MRS2365 metabolites utilizing a LC-MS/MS-based “metabolite scouting” protocol. […] Blood and plasma samples were analyzed by both positive- and negative-ion LC/MS-MS for parent compound and metabolites as it was anticipated that the phosphorylated compounds would preferentially generate negative ions while the riboside MRS4322 would preferentially generate positive ions. In positive-ion mode, extracted ion chromatograms monitored masses in the range of 323.7-324.7 and 403.7-404.7 to scout for MRS4322 and MRS2347, respectively. Any ion peaks in these ranges were further analyzed to generate product ion spectra for these ion chromatogram peaks. […]

[3] = TBI mice, approx. 0.5 μmol/kg 30 min post-TBI

Structure (SMILES)	stability in phosphate-buffered saline [1]	GFAP expression in brain (Western blot, GFAP/actin) (GFAP expression; [3])	metabolites observed (M2 = MRS2347, M1 = MRS4322) ([2]; 100 μM in human plasma, lithium heparin as anti-coagulant)	MRS2365 concentrations during incubation ([2]; heparin-treated human plasma, 0-90 seconds, even at 0 and 5 seconds)	GFAP levels in plasma (Western blot, relative to actin) (GFAP expression; TBI mice, approx. 0.5 μmol/kg 30 min post-TBI, day 7, versus untreated TBI)	efficacy in the mouse TBI model (GFAP expression; summary statement)
CSc1nc(N)c2ncn([C@H]3[C@H](O)[C@H](O)[C@]4(COP(=O)(O)OP(=O)(O)O)C[C@H]34)c2n1 [MRS2365]	completely stable	significantly lower; also recorded: decreased	Two metabolites	extremely low	–	–
CSc1nc(N)c2ncn([C@H]3[C@H](O)[C@H](O)[C@]4(CO)C[C@H]34)c2n1 [MRS4322]	–	significantly lower; also recorded: decreased	–	–	significantly reduced	significant efficacy
